Assay [1] concerns the target T1, HCV genotype 1b (BK) NS3 modified enzyme with a R155K mutation (Hepatitis C virus genotype 1b, UniProt P26663, R1181K).
T1 construct: HCV genotype 1b (BK) NS3 modified enzyme
The assay can be described thus: HCV NS3 protease time-resolved fluorescence (TRF) assay, genotype 1b R155K. Type of assay: biochemical. Particulars: Ki 1b R155K. An outline of the steps: (§1)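 Time-resolved fluorescence, ex 340/em 615 nm, 400 μs delay; IC50 by four-parameter fit. Enzyme preincubated with compound 10 min, then TRF substrate 25 nM final added and reaction run 6 h at RT. Buffer HEPES pH 7.5 with NaCl, glycerol, Triton X-100, DTT, PEG 8000.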

The target of assay [2] is HCV NS3 protease genotype 3a (3A-1) (Hepatitis C virus genotype 3a, UniProt Q81258). The assay can be described thus: HCV NS3 protease time-resolved fluorescence (TRF) assay, genotype 3a. In kind it is biochemical. Particulars: Ki 3a. A digest of the protocol:
as §1

[3] abbreviates: genotype 1b (BK) NS3 R155K, single value.
Setting [4] is: first of two values printed in the cell (not explained).
The mark [5] stands for this setting: second of two values printed in the cell (not explained).

The structures appear in SMILES notation.

A word on the Ki: it is the equilibrium dissociation constant of an inhibitor or competing ligand from its target. Higher therefore signals a looser hold on the target. With `C=C[C@@H]1C[C@]1(NC(=O)[C@@H]1C[C@@H]2CN1C(=O)[C@H](C1CCCCC1)NC(=O)O[C@@H]1C[C@H]1CCCCCc1c(nc3ccccc3c1OCCCN1CCCOCC1)O2)C(=O)NS(=O)(=O)C1(C)CC1` [Example 168, (1aR,5S,8S,10R,22aR)-5-cyclohexyl-N-[(1R,2S)-2-ethenyl-1-{[(1-methylcyclopropyl)sulfonyl]carbamoyl}cyclopropyl]-17-[3-(1,4-oxazepan-4-yl)propoxy]-3,6-dioxo-1,1a,3,4,5,6,9,10,18,19,20,21, 22,22a-tetradeca hydro-8H-7,10-methanocyclopropa[18,19][1,10,3,6] dioxadiazacyclononadecino[11,12-b] quinoline-8-carboxamide], the Ki in assay [1] (setting [3]) was found to be 0.078 nM; in assay [2], 1.3 nM.
For the compound `C=C[C@@H]1C[C@]1(NC(=O)[C@@H]1C[C@@H]2CN1C(=O)[C@H](C(C)(C)C)NC(=O)O[C@@H]1C[C@H]1CCCCCc1c(nc3ccccc3c1-c1cccnc1)O2)C(=O)NS(=O)(=O)C1(C)CC1` [Example 246, (1aR,5S,8S,10R,22aR)-5-tert-butyl-N-[(1R,2S)-2-ethenyl-1-{[(1-methylcyclopropyl)sulfonyl]carbamoyl}cyclopropyl]-3,6-dioxo-17-(pyridin-3-yl)-1,1a,3,4,5,6,9,10,18,19,20,21,22,22a-tetradecahydro-8H-7,10-methanocyclopropa[18,19][1,10,3,6]dioxadiazacyclononadecino[11,12-b]quinoline-8-carboxamide], the Ki in assay [1] (setting [4]) is 1.02 nM; in assay [1] (setting [5]) it was 1.14 nM; in assay [2] it was 211 nM.
Consider `C=C[C@@H]1C[C@]1(NC(=O)[C@@H]1C[C@@H]2CN1C(=O)[C@H](C1Cc3ccccc3C1)NC(=O)O[C@@H]1C[C@H]1CCCCCc1c(nc3ccccc3c1OCCCN(C)C)O2)C(=O)NS(=O)(=O)C1(C)CC1` [Example 233, (1aR,5S,8S,10R,22aR)-5-(2,3-dihydro-1H-inden-2-yl)-17-[3-(dimethylamino)propoxy]-N-[(1R,2S)-2-ethenyl-1-{[(1-methylcyclopropyl)sulfonyl]carbamoyl}cyclopropyl]-3,6-dioxo-1,1a,3,4,5,6,9,10,18,19,20,21,22,22a-tetradecahydro-8H-7,10-methanocyclopropa[18,19][1,10,3,6]dioxadiazacyclononadecino[11,12-b]quinoline-8-carboxamide], for which the Ki in assay [1] (setting [4]) came out at 0.015 nM; in assay [1] (setting [5]) it was 0.08 nM; in assay [2], 4.2 nM.
Taken in the same sequence, the figures for `C=C[C@@H]1C[C@]1(NC(=O)[C@@H]1C[C@@H]2CN1C(=O)[C@H](C1CCCCC1)NC(=O)O[C@@H]1C[C@H]1CCCCCc1c(nc3ccccc3c1OCCCN1CCN(C(=O)OC(C)(C)C)CC1)O2)C(=O)NS(=O)(=O)C1(C)CC1` [Example 264, tert-butyl 4-(3-{[(1aR,5S,8S,10R,22aR)-5-cyclohexyl-8-{[(1R,2S)-2-ethenyl-1-{[(1-methylcyclopropyl)sulfonyl]carbamoyl}cyclopropyl]carbamoyl}-3,6-dioxo-1,1a,3,4,5,6,9,10,18,19,20,21,22,22a-tetradecahydro-8H-7,10-methanocyclopropa[18,19][1,10,3,6]dioxadiazacyclononadecino[11,12-b]quinolin-17-yl]oxy}propyl)piperazine-1-carboxylate] were 0.037 nM, 1.4 nM and 7.7 nM.
For `C=C[C@@H]1C[C@]1(NC(=O)[C@@H]1C[C@@H]2CN1C(=O)[C@H](C1CCCC1)NC(=O)O[C@@H]1CCC[C@H]1CC/C=C/Cc1c(nc3ccccc3c1O)O2)C(=O)NS(=O)(=O)C1(C)CC1` [Example 23, (3aR,7S,10S,12R,21E,24aS)-7-cyclopentyl-N-[(1R,2S)-2-ethenyl-1-{[(1-methylcyclopropyl)sulfonyl]carbamoyl}cyclopropyl]-19-hydroxy-5,8-dioxo-1,2,3,3a,5,6,7,8,11,12,20,23,24,24a-tetradecahydro-10H-9,12-methanocyclopenta[18,19][1,10,3,6]dioxadiazacyclononadecino[11,12-b]quinoline-10-carboxamide], the Ki in assay [1] (setting [3]) is 0.11 nM; in assay [2] it was 0.64 nM.
Taken in the same sequence, the figures for `C=C[C@@H]1C[C@]1(NC(=O)[C@@H]1C[C@@H]2CN1C(=O)[C@H](C(C)(C)C)NC(=O)O[C@@H]1CCC[C@H]1CCCCCc1c(nc3ccccc3c1O)O2)C(=O)NS(=O)(=O)C1(COCc2ccccc2)CC1` [Example 36, (3aR,7S,10S,12R,24aR)-N-{(1R,2S)-1-[({1-[(benzyloxy)methyl]cyclopropyl}sulfonyl)carbamoyl]-2-ethenylcyclopropyl}-7-tert-butyl-19-hydroxy-5,8-dioxo-1,2,3,3a,5,6,7,8,11,12, 20,21,22,23,24,24a-hexadeca hydro-10H-9,12-methanocyclopenta[18,19][1,10,3,6] dioxadiazacyclononadecino[11,12-b] quinoline-10-carboxamide] were 0.15 nM and 3.2 nM.
Taken in the same sequence, the figures for `C=C[C@@H]1C[C@]1(NC(=O)[C@@H]1C[C@@H]2CN1C(=O)[C@H](C(C)(C)C)NC(=O)O[C@@H]1C[C@H]1CCCCCc1c(nc3c(F)cccc3c1OCCN1CCC1)O2)C(=O)NS(=O)(=O)C1(C)CC1` [Example 212, (1aR,5S,8S,10R,22aR)-17-[2-(azetidin-1-yl)ethoxy]-5-tent-butyl-N-[(1R,2S)-2-ethenyl-1-{[(1-methylcyclopropyl)sulfonyl]carbamoyl}cyclopropyl]-13-fluoro-3,6-dioxo-1,1a,3,4,5,6,9,10,18,19,20,21,22,22a-tetradecahydro-8H-7,10-methanocyclopropa[18,19][1,10,3,6] dioxadiazacyclononadecino[11,12-b]quinoline-8-carboxamide] were 0.22 nM and 1.9 nM.
For the compound `C=C[C@@H]1C[C@]1(NC(=O)[C@@H]1C[C@@H]2CN1C(=O)[C@H](C(C)(C)C)NC(=O)O[C@@H]1C[C@H]1CCCCCc1c(nc3ccccc3c1-c1ccccn1)O2)C(=O)NS(=O)(=O)C1(C)CC1` [Example 245, (1aR,5S,8S,10R,22aR)-5-tert-butyl-N-[(1R,2S)-2-ethenyl-1-{[(1-methylcyclopropyl)sulfonyl]carbamoyl}cyclopropyl]-3,6-dioxo-17-(pyridin-2-yl)-1,1a,3,4,5,6,9,10,18,19,20,21,22,22a-tetradecahydro-8H-7,10-methanocyclopropa[18,19][1,10,3,6]dioxadiazacyclononadecino[11,12-b]quinoline-8-carboxamide], the Ki in assay [1] (setting [4]) was determined as 0.546 nM; in assay [1] (setting [5]), 1.41 nM; in assay [2], 128 nM.
As to `C=CC1C[C@]1(NC(=O)[C@@H]1C[C@@H]2CN1C(=O)[C@H](C(C)(C)C)NC(=O)O[C@@H]1CCC[C@H]1CCCCCc1c(nc3ccccc3c1OCCN1CCOCC1)O2)C(=O)NS(=O)(=O)C1(C(=C)C)CC1` (some centres unmarked) [Example 62], the Ki came to 1.6 nM in assay [1] (setting [3]) and 85 nM in assay [2].
Taken in the same sequence, the figures for `C=C[C@@H]1C[C@]1(NC(=O)[C@@H]1C[C@@H]2CN1C(=O)[C@H](C1CCCC1)NC(=O)O[C@@H]1CCC[C@H]1CC/C=C/Cc1c(nc3ccccc3c1OCCCN1CCCC1)O2)C(=O)NS(=O)(=O)C1(C)CC1` [Example 54, (3aR,7S,10S,12R,21E,24aS)-7-cyclopentyl-N-[(1R,2S)-2-ethenyl-1-{[(1-methylcyclopropyl)sulfonyl]carbamoyl}cyclopropyl]-5,8-dioxo-19-[3-(pyrrolidin-1-yl)propoxy]-1,2,3,3a,5,6,7,8,11,12,20,23,24,24a-tetradecahydro-10H-9,12-methanocyclopenta[18,19][1,10,3,6] dioxadiazacyclononadecino[11,12-b] quinoline-10-carboxamide] were 0.02 nM and 0.45 nM.
With `C=C[C@@H]1C[C@]1(NC(=O)[C@@H]1C[C@@H]2CN1C(=O)[C@H](C1CCCCC1)NC(=O)O[C@@H]1C[C@H]1CCCCCc1c(nc3ccccc3c1OC1CCN(C(=O)OC(C)(C)C)CC1)O2)C(=O)NS(=O)(=O)C1(C)CC1` [Example 235, tert-butyl 4-{[(1aR,5S,8S,10R,22aR)-5-cyclohexyl-8-{[(1R,2S)-2-ethenyl-1-{[(1-methylcyclopropyl)sulfonyl]carbamoyl}cyclopropyl]carbamoyl}-3,6-dioxo-1,1a,3,4,5,6,9,10,18,19,20,21,22,22a-tetradecahydro-8H-7,10-methanocyclopropa[18,19][1,10,3,6]dioxadiazacyclononadecino[11,12-b]quinolin-17-yl]oxy}piperidine-1-carboxylate], the Ki is 0.53 nM in assay [1] (setting [4]), 4.36 nM in assay [1] (setting [5]) and 203 nM in assay [2].
`C=C[C@@H]1C[C@]1(NC(=O)[C@@H]1C[C@@H]2CN1C(=O)[C@H](C(C)(C)C)NC(=O)O[C@@H]1C[C@H]1CCCCCc1c(nc3ccccc3c1OCCCN1CCCC1)O2)C(=O)NS(=O)(=O)C1(C)CC1` [Example 117, (1aR,5S,8S,10R,22aR)-5-tert-butyl-N-[(1R,2S)-2-ethenyl-1-{[(1-methylcyclopropyl)sulfonyl]carbamoyl}cyclopropyl]-3,6-dioxo-17-[3-(pyrrolidin-1-yl)propoxy]-1,1a,3,4,5,6,9,10,18,19,20,21,22,22a-tetradeca hydro-8H-7,10-methano cyclopropa[18,19][1,10,3,6] dioxadiazacyclononadecino [11,12-b]quinoline-8-carboxamide]: the Ki in assay [1] (setting [3]) is 0.08 nM; in assay [2], 0.93 nM.

Values taken from patent publication US9328138B2 (priority 2011, dated 2016).
